For the assay, the target named is T1, ERα (Homo sapiens, UniProt P03372).
T1 construct: host or cells: MCF7
T1 sequence (P03372 1-595): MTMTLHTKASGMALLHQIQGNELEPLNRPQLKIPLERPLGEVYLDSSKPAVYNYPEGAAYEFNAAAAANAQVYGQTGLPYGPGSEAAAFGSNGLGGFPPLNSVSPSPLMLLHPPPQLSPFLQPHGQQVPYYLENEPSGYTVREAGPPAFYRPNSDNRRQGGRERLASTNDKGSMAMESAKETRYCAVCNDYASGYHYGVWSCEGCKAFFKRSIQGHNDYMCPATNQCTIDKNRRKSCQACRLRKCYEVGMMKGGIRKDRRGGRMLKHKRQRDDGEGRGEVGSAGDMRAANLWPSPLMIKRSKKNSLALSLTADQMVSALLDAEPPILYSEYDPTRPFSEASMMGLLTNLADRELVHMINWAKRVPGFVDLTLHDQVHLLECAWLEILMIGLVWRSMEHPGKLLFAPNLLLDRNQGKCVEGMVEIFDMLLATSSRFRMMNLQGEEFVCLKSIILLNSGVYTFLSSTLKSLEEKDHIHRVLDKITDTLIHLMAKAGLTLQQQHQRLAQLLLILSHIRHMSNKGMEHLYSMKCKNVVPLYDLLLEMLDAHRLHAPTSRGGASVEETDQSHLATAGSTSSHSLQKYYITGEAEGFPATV
As to the kind of experiment: Estrogen receptor degradation activity: breast cancer cell ERα in cell western assay (MCF7 cells). It is filed as cell-based. The conditions noted are these: for % Degradation At 0.3 μM: 4 hours, relative to fulvestrant 0.1 μM positive control; for DC50: 4 hours post compound addition, concentration which degrades 50% of the estrogen receptor, read-out: Degradation IC50. A digest of the protocol: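 In-cell western readout: ERα immunofluorescence (Alexa 488) normalised to DNA signal (Syto-64) after formalin fixation. Compounds dosed for 4 h on MCF7 cells in stripped-serum, phenol-red-free medium over nine 1:5 steps, 0.3 to […] final; fulvestrant 0.1 μM control. IC50 in nM for 50% ERα degradation.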

SMILES strings stand for the structures.

In the case of `[2H]C([2H])(CCF)N1CC(=Cc2ccc(C3=C(c4ccc(Cl)cc4Cl)CCCc4cc(C(=O)O)ccc43)cc2)C1` [Example 122, 8-(2,4-dichlorophenyl)-9-(4-((1-(3-fluoropropyl-1,1-d2)azetidin-3-ylidene)methyl)phenyl)-6,7-dihydro-5H-benzo[7]annulene-3-carboxylic acid], the “% Degradation At 0.3 μM” value is 94% and the DC50 was determined as 400 pM.
The matching figures for `O=C(O)c1ccc2c(c1)CCCC(c1cc(F)cc(C(F)(F)F)c1Cl)=C2c1ccc(C=C2CN(CCCF)C2)cc1` [Example 123, 8-(2-chloro-5-fluoro-3-(trifluoromethyl)phenyl)-9-(4-((1-(3-fluoropropyl)azetidin-3-ylidene)methyl)phenyl)-6,7-dihydro-5H-benzo[7]annulene-3-carboxylic acid]: 94% and 700 pM.
The matching figures for `O=C(O)c1ccc2c(c1)CCCC(c1ccc(F)c(C(F)(F)F)c1F)=C2c1ccc(C=C2CN(CCCF)C2)cc1` [Example 124, 8-(2,4-difluoro-3-(trifluoromethyl)phenyl)-9-(4-((1-(3-fluoropropyl)azetidin-3-ylidene)methyl)phenyl)-6,7-dihydro-5H-benzo[7]annulene-3-carboxylic acid]: 93% and 1200 pM.
The matching figures for `O=C(O)c1ccc2c(c1)CCCC(c1ncc(Cl)cc1C(F)(F)F)=C2c1ccc(C=C2CN(CCC(F)F)C2)cc1` [Example 125, 8-(5-chloro-3-(trifluoromethyl)pyridin-2-yl)-9-(4-((1-(3,3-difluoropropyl)azetidin-3-ylidene)methyl)phenyl)-6,7-dihydro-5H-benzo[7]annulene-3-carboxylic acid]: 91% and 700 pM.
Regarding `Cc1c(Cl)cccc1C1=C(c2ccc(C=C3CN(CCC(F)F)C3)cc2)c2ccc(C(=O)O)cc2CCC1` [Example 126, 8-(3-chloro-2-methylphenyl)-9-(4-((1-(3,3-difluoropropyl)azetidin-3-ylidene)methyl)phenyl)-6,7-dihydro-5H-benzo[7]annulene-3-carboxylic acid], the “% Degradation At 0.3 μM” value was determined as 93% and the DC50 is 500 pM.
For `Cc1c(C2=C(c3ccc(C=C4CN(CCC(F)F)C4)cc3)c3ccc(C(=O)O)cc3CCC2)ccc(Cl)c1F` [Example 127, 8-(4-chloro-3-fluoro-2-methylphenyl)-9-(4-((1-(3,3-difluoropropyl)azetidin-3-ylidene)methyl)phenyl)-6,7-dihydro-5H-benzo[7]annulene-3-carboxylic acid], in that order: 93% and 600 pM.
For `O=C(O)c1ccc2c(c1)CCCC(c1ccc(Cl)cc1C(F)(F)F)=C2c1ccc(C=C2CN(CCC(F)F)C2)cc1` [Example 128, 8-(4-chloro-2-(trifluoromethyl)phenyl)-9-(4-((1-(3,3-difluoropropyl)azetidin-3-ylidene)methyl)phenyl)-6,7-dihydro-5H-benzo[7]annulene-3-carboxylic acid], in that order: 93% and 1100 pM.
The matching figures for `O=C(O)c1ccc2c(c1)CCCC(c1cccc(C(F)(F)F)c1F)=C2c1ccc(C=C2CN(CCC(F)F)C2)cc1` [Example 129, 9-(4-((1-(3,3-difluoropropyl)azetidin-3-ylidene)methyl)phenyl)-8-(2-fluoro-3-(trifluoromethyl)phenyl)-6,7-dihydro-5H-benzo[7]annulene-3-carboxylic acid]: 94% and 1000 pM.
Turning to `Cc1c(F)ccc(C2=C(c3ccc(C=C4CN(CCC(F)F)C4)cc3)c3ccc(C(=O)O)cc3CCC2)c1C` [Example 130, 9-(4-((1-(3,3-difluoropropyl)azetidin-3-ylidene)methyl)phenyl)-8-(4-fluoro-2,3-dimethylphenyl)-6,7-dihydro-5H-benzo[7]annulene-3-carboxylic acid], the “% Degradation At 0.3 μM” value was found to be 96% and the DC50 worked out at 1600 pM.
The matching figures for `Cc1cccc(C2=C(c3ccc(C=C4CN(CCC(F)F)C4)cc3)c3ccc(C(=O)O)cc3CCC2)c1Cl` [Example 131, 8-(2-chloro-3-methylphenyl)-9-(4-((1-(3,3-difluoropropyl)azetidin-3-ylidene)methyl)phenyl)-6,7-dihydro-5H-benzo[7]annulene-3-carboxylic acid]: 95% and 1100 pM.
`Cc1cc(Cl)ccc1C1=C(c2ccc(C=C3CN(CCC(F)F)C3)cc2)c2ccc(C(=O)O)cc2CCC1` [Example 132, 8-(4-chloro-2-methylphenyl)-9-(4-((1-(3,3-difluoropropyl)azetidin-3-ylidene)methyl)phenyl)-6,7-dihydro-5H-benzo[7]annulene-3-carboxylic acid]: the “% Degradation At 0.3 μM” value is on record as 95% and the DC50 was determined as 800 pM.
For `O=C(O)c1ccc2c(c1)CCCC(c1cccc(C(F)(F)F)c1Cl)=C2c1ccc(C=C2CN(CCC(F)F)C2)cc1` [Example 133, 8-(2-chloro-3-(trifluoromethyl)phenyl)-9-(4-((1-(3,3-difluoropropyl)azetidin-3-ylidene)methyl)phenyl)-6,7-dihydro-5H-benzo[7]annulene-3-carboxylic acid], in that order: 92% and 1000 pM.
For `Cc1c(C2=C(c3ccc(C=C4CN(CCC(F)F)C4)cc3)c3ccc(C(=O)O)cc3CCC2)cccc1C(F)(F)F` [Example 134, 9-(4-((1-(3,3-difluoropropyl)azetidin-3-ylidene)methyl)phenyl)-8-(2-methyl-3-(trifluoromethyl)phenyl)-6,7-dihydro-5H-benzo[7]annulene-3-carboxylic acid], in that order: 93% and 1100 pM.
For `O=C(O)c1ccc2c(c1)CCCC(c1ccc(F)c(F)c1F)=C2c1ccc(C=C2CN(CCCF)C2)cc1` [Example 135, 9-(4-((1-(3-fluoropropyl)azetidin-3-ylidene)methyl)phenyl)-8-(2,3,4-trifluorophenyl)-6,7-dihydro-5H-benzo[7]annulene-3-carboxylic acid], in that order: 96% and 500 pM.
As to `Cc1ccc(C(F)(F)F)cc1C1=C(c2ccc(C=C3CN(CCCF)C3)cc2)c2ccc(C(=O)O)cc2CCC1` [Example 136, 9-(4-((1-(3-fluoropropyl)azetidin-3-ylidene)methyl)phenyl)-8-(2-methyl-5-(trifluoromethyl)phenyl)-6,7-dihydro-5H-benzo[7]annulene-3-carboxylic acid], the “% Degradation At 0.3 μM” value is on record as 92% and the DC50 is 800 pM.
For `COc1ccc(C(F)(F)F)cc1C1=C(c2ccc(C=C3CN(CCCF)C3)cc2)c2ccc(C(=O)O)cc2CCC1` [Example 137], in that order: 92% and 3700 pM.
The matching figures for `Cc1cc(F)ccc1C1=C(c2ccc(C=C3CN(CCCF)C3)cc2C(F)(F)F)c2ccc(C(=O)O)cc2CCC1` [Example 138, 8-(4-fluoro-2-methylphenyl)-9-(4-((1-(3-fluoropropyl)azetidin-3-ylidene)methyl)-2-(trifluoromethyl)phenyl)-6,7-dihydro-5H-benzo[7]annulene-3-carboxylic acid]: 95% and 1800 pM.
The matching figures for `Cc1cc(F)ccc1C1=C(c2ccc(C=C3CN(CCCF)C3)cc2C#N)c2ccc(C(=O)O)cc2CCC1` [Example 139, 9-(2-cyano-4-((1-(3-fluoropropyl)azetidin-3-ylidene)methyl)phenyl)-8-(4-fluoro-2-methylphenyl)-6,7-dihydro-5H-benzo[7]annulene-3-carboxylic acid]: 97% and 3100 pM.
`O=C(O)c1ccc2c(c1)CCCC(c1cc(C(F)(F)F)ccc1Cl)=C2c1ccc(C=C2CN(CCCF)C2)cc1` [Example 140, 8-(2-chloro-5-(trifluoromethyl)phenyl)-9-(4-((1-(3-fluoropropyl)azetidin-3-ylidene)methyl)phenyl)-6,7-dihydro-5H-benzo[7]annulene-3-carboxylic acid]: the “% Degradation At 0.3 μM” value is reported as 92% and the DC50 amounted to 500 pM.
For `O=C(O)c1ccc2c(c1)CCCC(c1ccc(C3CC3)cc1C(F)(F)F)=C2c1ccc(C=C2CN(CCCF)C2)cc1` [Example 141, 8-(4-cyclopropyl-2-(trifluoromethyl)phenyl)-9-(4-((1-(3-fluoropropyl)azetidin-3-ylidene)methyl)phenyl)-6,7-dihydro-5H-benzo[7]annulene-3-carboxylic acid], in that order: 88% and 400 pM.
The matching figures for `O=C([O-])c1ccc2c(c1)CCCC(c1ccc(F)cc1F)=C2c1ccc(C=C2CN(CCCF)C2)cc1F.[Na+]` [Example 142, Sodium 8-(2,4-difluorophenyl)-9-(2-fluoro-4-((1-(3-fluoropropyl)azetidin-3-ylidene)methyl)phenyl)-6,7-dihydro-5H-benzo[7]annulene-3-carboxylate]: 96% and 300 pM.

For the origin of these results see US12612360B2 (Sanofi, priority 2020, dated 2026).
